Measurements taken from patent US20220370380A1, “EXERCISE-INDUCED HEMOLYSIS SUPPRESSANT AND COMPOSITION FOR SUPPRESSING/IMPROVING EXERCISE-INDUCED HEMOLYTIC ANEMIA” (AstaReal Co., Ltd., priority 2019, published 2022).
Where two headings read alike, the source gives them in different places.

Key:
ordinary people = assay: Changes in number of erythrocytes and hemoglobin content of ordinary people (FIG. 3); format: in vivo, human; conditions: between before and after taking the test food
[1] = test system: men's medium- and long-distance runners; assay: Confirmation test for suppression of exercise-induced hemolysis using astaxanthin; format: in vivo, human; conditions: compared with control group
Procedure: A confirmation test to confirm whether or not exercise-induced hemolysis that causes exercise-induced hemolytic anemia can be suppressed by orally taking a test food containing astaxanthin by a subject was conducted as follows.
Two types of test foods, a “capsules for astaxanthin group” containing a Haematococcus algae-derived pigment and a “capsules for control group” not containing the Haematococcus algae-derived pigment were prepared. Further, twenty-eight men's medium- and long-distance runners aged from 18 to 22 belonging to the athletic club of Tokai University as subjects were divided into two groups. Thirteen subjects were designated as the “astaxanthin group”, and fifteen subjects were designated as the “control group”. […]
Specifically, running training in the highlands was first conducted for 4 weeks, setting the period of running training in the highlands as “acclimatization period (Weeks 0 to 4)”, then blood samples were collected from the subjects of the “astaxanthin group” and the “control group”, to measure the number of erythrocytes (red blood cells), the hemoglobin content (amount of blood pigment; hemoglobin concentration), and the serum haptoglobin concentration. […] This test was conducted by observing the rate of change in the number of erythrocytes, the rate of change in the hemoglobin content (hemoglobin concentration), and the transition of the serum haptoglobin concentration from the start date to the end date of the observation period in each of the “astaxanthin group” and the “control group” thus measured. […]
The blood samples collected from the subjects of the “astaxanthin group” and the “control group” were treated with EDTA-2K to measure the number of erythrocytes using the sheath flow electrical resistance detection method. […] On the other hand, the collected blood samples were transferred to a tube containing EDTA-2Na and centrifuged to separate the plasma fraction, to measure the serum haptoglobin concentration using an ELISA kit for haptoglobin quantification (Quantikine Human Haptoglobin ELISA Kit (product code: DHAPGO), available from R&D Systems, Inc.). […]

[2] = test system: men's medium- and long-distance runners; assay: Confirmation test for antioxidant capacity (serum total antioxidant capacity); format: in vivo, human; conditions: test period Week 0 to Week 8; astaxanthin group versus control group
Procedure: In order to confirm the antioxidant capacity in the “astaxanthin group” of Example 1, the concentrations of water-soluble antioxidants contained in the serum of the subjects of the “astaxanthin group” and the “control group” were measured during the “test period” of Weeks 0 to 8 through the “acclimatization period (Weeks 0 to 4)” and the “observation period (Weeks 4 to 8)” of Example 1. The period of the confirmation test was set to the “test period” of Weeks 0 to 8 through the “acclimatization period (Weeks 0 to 4)” and the “observation period (Weeks 4 to 8)” because there was no causal relationship of the antioxidant capacity with whether running training was performed in the highlands or flatlands.
Specifically, this test was performed as follows. The blood samples were collected from the subjects of the “astaxanthin group” and the “control group” at Week 0 (start date of test food intake), Week 4, and Week 8 (last day of test food intake), to measure the concentrations of water-soluble antioxidants in serum and measure the total antioxidant capacity. Thereafter, the average was calculated, and the transition of the average of the total antioxidant capacity from Week 0 to Week 8 in each of the “astaxanthin group” and the “control group” thus calculated was observed. […]

[3] = literature: Takahashi et al. 2004; cited from earlier work
[4] = test system: men's medium- and long-distance runners; assay: Confirmation test for suppression of hemolysis due to oxidative damage (urinary 8-OHdG and isoprostane production rate); format: in vivo, human
From the text: In order to confirm whether or not hemolysis due to oxidative damage is suppressed in the “astaxanthin group” of Example 1 (whether or not oxidative damage to erythrocytes (red blood cells) is suppressed), the production rate of 8-OHdG and isoprostane contained in the urine of the subjects of the “astaxanthin group” and the “control group” was investigated during the “test period” of Weeks 0 to 8 through the “acclimatization period (Weeks 0 to 4)” and the “observation period (Weeks 4 to 8)” of Example 1. The period of the confirmation test was set to the “test period” of Weeks 0 to 8 through the “acclimatization period (Weeks 0 to 4)” and the “observation period (Weeks 4 to 8)” because there was no causal relationship of whether or not hemolysis occurred due to oxidative damage with whether running training was performed in the highlands or flatlands.
Specifically, this test was performed as follows. Urine was collected from the subjects of the “astaxanthin group” and the “control group” at Week 0 (start date of test food intake), Week 4, and Week 8 (last day of test food intake), and the production rate of 8-OHdG and the production rate of isoprostane were measured. Thereafter, their averages were calculated, and then the transitions of the averages of the production rate of 8-OHdG and the production rate of isoprostane from Week 0 to Week 8 in each of the “astaxanthin group” and the “control group” thus calculated were observed.
The 8-OHdG concentration in the urine collected from the subjects of the “astaxanthin group” and the “control group” was measured using a New 8-OHdG Check ELISA (ELISA kit for 8-OHdG (product code: KOG-2005/E), available from NIKKEN SEIL Co., Ltd.) by an ELISA method. The production rate of 8-OHdG per body weight and time was calculated by the formula shown below.
Production rate of 8-OHdG (ng/kg/hr)={8-OHdG concentration in urine (ng/mL)×volume of urine collected (mL)}/{elapsed time since the last urination (h)×body weight of subject (kg)}
The isoprostane concentration in the urine collected from the subjects of the “astaxanthin group” and the “control group” was measured using a urinary isoprostane measurement ELISA kit (8-iso-PGF2a ELISA kit (product code: ADI-900-010), available from Enzo Life Sciences) by an ELISA method. The production rate of isoprostane per body weight and time was calculated by the formula shown below.
Production rate of isoprostane (ng/kg/hr)={isoprostane concentration in urine (ng/mL)×volume of urine collected (mL)}/{elapsed time since the last urination (h)×body weight of subject (kg)} […]

[5] = cited from earlier work

With `CC1=C(/C=C/C(C)=C/C=C/C(C)=C/C=C/C=C(C)/C=C/C=C(C)/C=C/C2=C(C)C(=O)C(O)CC2(C)C)C(C)(C)CC(O)C1=O` (stereo not drawn) [astaxanthin, 3,3′-dihydroxy-β,β-carotene-4,4′-dione] the “hemoglobin content (hemoglobin concentration)” value (ordinary people) was “no significant difference”, the number of erythrocytes (ordinary people) was “no significant difference” and the “rate of change in the number of erythrocytes during the observation period” value ([1]; astaxanthin 12 mg/day oral (free form), observation period Weeks 4 to 8, running training in flatlands) was “high”. The “serum haptoglobin concentration on the start date of the observation period” value ([1]; astaxanthin 12 mg/day oral, Week 4) was “almost no difference”, the “serum haptoglobin concentration on the end date of the observation period” value ([1]; astaxanthin 12 mg/day oral, Week 8) was “extremely high” and the “rate of change in the hemoglobin content (hemoglobin concentration) during the observation period” value ([1]; astaxanthin 12 mg/day oral, observation period Weeks 4 to 8, running training in flatlands) was “also high”. The “average of measured values of the total antioxidant capacity (serum)” value [2] was “no significant difference”, the mutagenicity [3] was “no mutagenicity observed” and the “average of measured values of the production rate of isoprostane (urine)” value ([4]; Week 0, astaxanthin group compared with control group) was “low”. For the same compound, the “average of measured values of the production rate of isoprostane (urine)” value ([4]; Week 4 and Week 8, astaxanthin group versus control group) was “no difference observed”, the “average production rate (urine marker), comparison between before and after taking the test food” value ([4]; after intake compared with before intake (Week 0), within astaxanthin group) was “increased after intake” and the “average of measured values of the production rate of 8-OHdG (urine)” value ([4]; test period Week 0 to Week 8, astaxanthin group versus control group) was “no significant difference”. For the same compound, the “antioxidant activity relative to vitamin E” value [5] was 1000 times, the “antioxidant activity relative to vitamin E” value ([5]; listed as Astaxanthin) was “about 1,000 times” and the “antioxidant activity relative to β-carotene” value ([5]; relative to β-carotene) was “about 40 times”.
